Measured values published in US5583198A, “Amino acids, peptides or derivatives thereof coupled to fats” (Commonwealth Scientific and Industrial Research Organization, priority 1989, dated 1996).

How the values were obtained:
[1] = molecular target: T1, TPCK trypsin (Bos taurus, UniProt P00760); experiment: Protease treatment with trypsin (hydrolysis followed by HPLC); type: biochemical; settings: 0.2M ammonium hydrogen carbonate, 37° C., enzyme/substrate 1:50; product Z-Leu-Arg-OH
T1 sequence (P00760 24-246): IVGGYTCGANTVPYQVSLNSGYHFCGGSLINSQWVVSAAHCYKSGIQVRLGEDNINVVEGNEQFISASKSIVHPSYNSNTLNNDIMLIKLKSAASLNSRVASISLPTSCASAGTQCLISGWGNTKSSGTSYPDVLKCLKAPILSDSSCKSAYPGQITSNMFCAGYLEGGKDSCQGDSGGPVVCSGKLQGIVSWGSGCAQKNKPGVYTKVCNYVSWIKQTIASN
Procedure: (§1) Z-Gly-TRIS and Z-Ala-TRIS were incubated with papain, and Z-Leu-Arg-TRIS with trypsin, to test that the action of proteolytic enzymes could regenerate the starting compounds Z-Gly-OH, Z-Ala-OH and Z-Leu-Arg-OH respectively.
b) Trypsin. Z-Leu-Arg-TRIS was incubated at a concentration between 2 and 10 mg/ml in 0.2M ammonium hydrogen carbonate. Freshly prepared TPCK trypsin (1 mg/ml in water) was added to the solution giving a final enzyme/substrate ratio of 1:50. Samples were incubated at 37° C. and aliquots examined by reverse phase HPLC. Additional amounts of enzyme were added as required.

[2] = system: RD10 cells (B-cell lymphoma); settings: under these conditions; cited from earlier work
[3] = molecular target: T2, papain (Carica papaya, UniProt P00784); experiment: Protease treatment with papain (hydrolysis followed by HPLC); type: biochemical; settings: phosphate buffer pH 6.5, enzyme/substrate 1:50, HPLC monitoring; main product Z-Ala-OH / Z-Gly-OH
T2 construct: purchased Sigma
T2 sequence (P00784 134-345): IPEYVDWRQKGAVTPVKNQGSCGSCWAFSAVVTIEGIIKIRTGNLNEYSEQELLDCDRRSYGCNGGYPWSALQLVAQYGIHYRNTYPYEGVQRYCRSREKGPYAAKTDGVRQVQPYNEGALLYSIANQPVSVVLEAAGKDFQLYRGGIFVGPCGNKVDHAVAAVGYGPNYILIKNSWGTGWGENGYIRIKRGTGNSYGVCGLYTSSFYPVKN
Procedure: as §1
50 ul of a suspension of papain (25 mg/ml, Sigma) was incubated with 20 mM aqueous solution of EDTA (50 ul); 1 Molar solution of mercaptoethanol (25 ul); 50 mM triethylamine (25 ul); and water (100 ul) at 37° C. for 30 min.
a) Papain. Z-Ala-TRIS in 50 mmolar phosphate buffer pH 6.5 (650 ul), 20 mM ethylene-diamise-tetra-acetic acid (100 ul) and water to 1 ml. Activated papain (5 mg/ml) was added to a final enzyme/substrate ratio of 1:50. The reaction was followed by HPLC on C18 reverse phase columns and the hydrolysis product identified by co-chromatography with standards. Blanks were incubated as above using water instead of enzyme solution.

[4] = system: U937 cells (human monocyte-like histiocytic lymphoma); experiment: 3H-thymidine incorporation (mitogenic effect) in U937 cells; type: cell-based
Procedure: (§2) ^3 H-thymidine incorporation experiments were carried out in Linbro-Titertek microtitre plates (Flow Laboratories, Inc., U.S.A.) following the method of L. Bradley in "Selected Methods of Cellular Immunology (1980) Eds. B. B. Mishell and S. M. Shiigi; Publisher. W. H. Freeman and Co., U.S.A. pp156. The tests were carried out externally by Dr. D. Rathjen of Peptide Technology Ltd., Dee Why, N.S.W.
2. U937; a human monocyte-like3 histiocytic lymphoma (source: American Tissue Culture Collection).
(§3) RD10 cells (at a cell density 5×10^5 /ml, 100 ul/well) were cultured for 20 hours at 37° C. with 5% CO2 in RPMI 1640 medium, supplemented with 10% Fetal Calf. Serum. Samples to be tested were mixed and sonicated with this medium at a concentration of 5000, 500.50 and 5 ug/ml and 100 ul aliquots added to the cells. The cells were pulsed with 0.5 uCi/well of ^3 H-thymidine and the plates incubated for four more hours before harvesting (Titertek Skatron harvester, Lier, Norway). Incorporated radioactivity was measured by liquid scintillation counting. All assays were performed in triplicate.

[5] = system: RD10 cells (B-cell lymphoma); experiment: 3H-thymidine incorporation (mitogenic effect) in RD10 cells; type: cell-based
Procedure: as §2
1. RD10; a B-cell lymphoma (obtained from the Centre for Immunology, Sydney University, Sydney, NSW.
as §3

## CC(C)C[C@H](NC(=O)OCc1ccccc1)C(=O)N[C@@H](CCCNC(=N)N)C(=O)NC(CO)(CO)CO [Z-Leu-Arg-TRIS]
[1]
  enzymatic hydrolysis by trypsin: hydrolyzed slowly

## phytohaemagglutinin
[2]
  3H-thymidine uptake: increase in cell proliferation (known mitogen, for comparison): 5-10 fold

## CC(NC(=O)OCc1ccccc1)C(=O)NC(CO)(CO)CO (stereo not drawn) [Z-Ala-TRIS]
[3]
  enzymatic hydrolysis by papain: hydrolysed by papain, albeit very slowly

## CCCCCCCCCCCCCCCC(=O)OCC(COC(=O)CCCCCCCCCCCCCCC)(COC(=O)CCCCCCCCCCCCCCC)NC(=O)C(C)N (stereo not drawn) [Ala-TRIS-Tripalmitate]
[4]
  Thymidine incorporation: slightly diminished responses
[5]
  3H-thymidine uptake response compared with Z-Ala-TRIS-Tripalmitate: slightly diminished response

## O=C(CNC(=O)OCc1ccccc1)NC(CO)(CO)CO [Z-Gly-TRIS]
[3]
  enzymatic hydrolysis by papain: hydrolysed by papain, albeit very slowly

## CCCCCCCCCCCCCCCC(=O)OCC(COC(=O)CCCCCCCCCCCCCCC)(COC(=O)CCCCCCCCCCCCCCC)NC(=O)C(C)NC(=O)OCc1ccccc1 (stereo not drawn) [Z-Ala-TRIS-Tripalmitate, Z-Ala-TRIS-TRIPALMITATE]
[4]
  Thymidine incorporation: close to control
[4]; at higher concentrations
  cytotoxic effects: slight cytotoxic effects
[5]; 20 hours culture, 4 hours pulse
  3H-thymidine uptake: increase in cell proliferation compared to control: 3-4 fold
